Assays:
human EAAT3 = target: T1, human EAAT3 (Homo sapiens, UniProt P43005); test: FLIPR Membrane Potential (FMP) assay; format: cell-based; conditions: HEK-293 cells stably expressing human EAAT3; antagonist applied 15 min before L-glutamate at EC80; Kb by Cheng-Prusoff from IC50
T1 construct: expressed in transfected cells
T1 sequence (P43005 1-524): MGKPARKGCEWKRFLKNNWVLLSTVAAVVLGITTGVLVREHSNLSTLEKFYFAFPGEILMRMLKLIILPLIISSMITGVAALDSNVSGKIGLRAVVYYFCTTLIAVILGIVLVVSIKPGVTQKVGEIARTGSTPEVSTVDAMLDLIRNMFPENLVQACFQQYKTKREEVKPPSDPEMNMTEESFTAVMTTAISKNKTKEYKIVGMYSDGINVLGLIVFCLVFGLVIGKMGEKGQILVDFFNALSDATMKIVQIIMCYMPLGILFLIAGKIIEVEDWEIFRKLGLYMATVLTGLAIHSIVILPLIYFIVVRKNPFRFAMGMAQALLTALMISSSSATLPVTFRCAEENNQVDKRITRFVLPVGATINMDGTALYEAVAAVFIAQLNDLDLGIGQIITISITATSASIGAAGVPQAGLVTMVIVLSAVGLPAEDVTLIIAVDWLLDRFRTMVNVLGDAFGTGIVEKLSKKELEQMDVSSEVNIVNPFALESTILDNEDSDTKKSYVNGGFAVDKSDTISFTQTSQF
Description: The FLIPR Membrane Potential (FMP) Assay
HEK-293 cells stably expressing human EAAT3 were seeded at 55 000 cells/well in growth medium (DMEM glutamate free (Invitrogen 11960-044), 1% Pen Strep (10 ml/l GIBCO BRL No 15140-023), 10% FCS non dialysed heat inactivated, 5 mg/l puromycin) in poly-D-lysine treated 96-well black microtiter plates with clear-bottom. After 24 h, the growth medium was removed and 100 μl/well of Krebs buffer (140 mM NaCl, 4.7 mM KCl, 2.5 mM CaCl2, 1.2 mM MgCl2, 11 mM HEPES, 10 mM D-glucose, pH=7.4) added. The cells were then loaded by adding 100 μl/well FMP assay dye (FLIPR Membrane Potential assay reagent, Molecular Devices). The 96-well plates were then incubated at 37° C. for 1 h. The depolarization of the cells will cause more dye to enter in the cells, where it will bind to intracellular proteins and lipids and cause an increase in the fluorescence signal. Antagonist potency at human EAAT3 was determined by using L-glutamate as agonist at a concentration which gives 80% of the maximum response. The antagonists were applied 15 min before the application of the agonist L-glutamate. The assays were performed at room temperature and measurements done by using a Fluorometric Imaging Plate Reader (FLIPR, Molecular Devices) and filter #2. Responses were measured as peak increase in fluorescence minus basal (i.e. fluorescence without addition of L-glutamate). Kb was determined using the Cheng-Prusoff equation Kb=IC50/[1+(A/EC50)], where IC50 is the concentration of the antagonist producing 50% inhibition, A is the concentration of the agonist against which the IC50 is being determined (at EC80) and EC50 is the concentration of the agonist producing 50% […].

Compound	melting point	Kb (human EAAT3)
CC1(NC(=O)c2cc(-c3ccc(Cl)cc3)cc(-n3cnnn3)c2)CCS(=O)(=O)C1 (racemic) [Example 16, (RS)-3-(4-Chlorophenyl)-N-(3-methyl-1,1-dioxothiolan-3-yl)-5-(tetrazol-1-yl)-benzamide]	204 °C	0.63 µM
CCC(C)(C)NC(=O)c1cc(-c2ccc(F)cc2)cc(-n2nnnc2C)c1 [Example 78, 3-(4-Fluorophenyl)-N-(2-methylbutan-2-yl)-5-(5-methyltetrazol-1-yl)-benzamide]	83 °C	0.11 µM
CCC(C)(C)NC(=O)c1cc(-c2ccc(Cl)cc2)cc(-n2nnnc2C2CC2)c1 [Example 55, 3-(4-Chlorophenyl)-5-(5-cyclopropyltetrazol-1-yl)-N-(2-methylbutan-2-yl)-benzamide]	78 °C	0.48 µM
CC(C)(C)NC(=O)c1cc(-c2ccc(Cl)c(F)c2)cc(-n2nnnc2C(C)(C)C)c1 [Example 105, N-tert-Butyl-3-(5-tert-butyltetrazol-1-yl)-5-(4-chloro-3-fluorophenyl)-benzamide]	240.5 °C	0.29 µM
CC(C)c1nnnn1-c1cc(C(=O)NC(C)(C)CO)cc(-c2ccc(F)cc2)c1 [Example 62, 3-(4-Fluorophenyl)-N-(1-hydroxy-2-methylpropan-2-yl)-5-(5-propan-2-yltetrazol-1-yl)-benzamide]	86.5 °C	0.55 µM
CC(C)c1nnnn1-c1cc(C(=O)NC(C)(C)C)cc(-c2ccc(Cl)cc2)c1 [Example 43, N-tert-Butyl-3-(4-chlorophenyl)-5-(5-propan-2-yltetrazol-1-yl)-benzamide]	90 °C	0.089 µM
Cc1ccc(-c2cc(C(=O)NC3(C)CCS(=O)(=O)C3)cc(-n3nnnc3C(C)C)c2)cc1 (racemic) [Example 17, (RS)-N-(3-methyl-1,1-dioxothiolan-3-yl)-3-(4-methylphenyl)-5-(5-propan-2-yltetrazol-1-yl)-benzamide]	112 °C	0.25 µM
CC(C)(C#N)NC(=O)c1cc(-c2ccc(C(F)(F)F)cc2)cc(-n2nnnc2C(C)(C)C)c1 [Example 120, 3-(5-tert-Butyltetrazol-1-yl)-N-(2-cyanopropan-2-yl)-5-[4-(trifluoromethyl)-phenyl]benzamide]	276.5 °C	0.3 µM
CC(C)(CO)NC(=O)c1cc(-c2ccc(Cl)cc2)cc(-n2nnnc2C(C)(C)C)c1 [Example 88, 3-(5-tert-Butyltetrazol-1-yl)-5-(4-chlorophenyl)-N-(1-hydroxy-2-methylpropan-2-yl)-benzamide]	112 °C	0.15 µM
CC(C)(C)c1nnnn1-c1cc(C(=O)NC(C)(C)C2CC2)cc(-c2ccc(Cl)cc2)c1 [Example 92, 3-(5-tert-Butyltetrazol-1-yl)-5-(4-chlorophenyl)-N-(2-cyclopropylpropan-2-yl)-benzamide]	101 °C	0.3 µM
CC(C)(C)NC(=O)c1cc(-c2ccc(C(F)(F)F)cc2)cc(-n2cnnn2)c1 [Example 3, N-tert-Butyl-3-(tetrazol-1-yl)-5-[4-(trifluoromethyl)phenyl]-benzamide]	108 °C	0.47 µM
CC(C)c1nnnn1-c1cc(C(=O)NC(C)(C)C2CC2)cc(-c2ccc(C(F)(F)F)cc2)c1 [Example 48, N-(2-Cyclopropylpropan-2-yl)-3-(5-propan-2-yltetrazol-1-yl)-5-[4-(trifluoromethyl)phenyl]benzamide]	90 °C	0.42 µM
CCC(C)(C)NC(=O)c1cc(-c2ccc(Cl)cc2)cc(-n2nnnc2C(F)(F)F)c1 [Example 74, 3-(4-Chlorophenyl)-N-(2-methylbutan-2-yl)-5-[5-(trifluoromethyl)-tetrazol-1-yl]-benzamide]	185 °C	0.18 µM
Cc1ccc(-c2cc(C(=O)NC(C)(C)C(F)(F)F)cc(-n3nnnc3C(C)(C)C)c2)cc1 [Example 117, 3-(5-tert-Butyltetrazol-1-yl)-5-(4-methylphenyl)-N-(1,1,1-trifluoro-2-methylpropan-2-yl)-benzamide]	223.5 °C	0.28 µM
CCC(C)(C)NC(=O)c1cc(-c2ccc(C)cc2)cc(-n2nnnc2C(C)C)c1 [Example 10, N-(2-Methylbutan-2-yl)-3-(4-methylphenyl)-5-(5-propan-2-yltetrazol-1-yl)-benzamide]	104 °C	0.23 µM
CC(C)(CO)NC(=O)c1cc(-c2ccc(Cl)cc2)cc(-n2cnnn2)c1 [Example 15, 3-(4-Chlorophenyl)-N-(1-hydroxy-2-methylpropan-2-yl)-5-(tetrazol-1-yl)-benzamide]	137 °C	0.8 µM
Cc1nnnn1-c1cc(C(=O)NC(C)(C)C(F)(F)F)cc(-c2ccc(F)cc2)c1 [Example 86, 3-(4-Fluorophenyl)-5-(5-methyltetrazol-1-yl)-N-(1,1,1-trifluoro-2-methylpropan-2-yl)-benzamide]	86 °C	0.2 µM
CC(C)c1nnnn1-c1cc(C(=O)NC(C)(C)C(F)(F)F)cc(-c2ccc(C(F)(F)F)cc2)c1 [Example 53, 3-(5-Propan-2-yltetrazol-1-yl)-5-[4-(trifluoromethyl)-phenyl]-N-(1,1,1-trifluoro-2-methylpropan-2-yl)-benzamide]	91 °C	0.48 µM
CC(C)(C#N)NC(=O)c1cc(-c2ccc(F)c(F)c2)cc(-n2nnnc2C(C)(C)C)c1 [Example 123, 3-(5-tert-Butyltetrazol-1-yl)-N-(2-cyanopropan-2-yl)-5-(3,4-difluorophenyl)-benzamide]	263.5 °C	0.22 µM
N-(2-methylbutan-2-yl)-3-(4-methylphenyl)-5-(5-methyltetrazol-1-yl)-benzamide [Example 22]		0.15 µM
CC(C)c1nnnn1-c1cc(C(=O)NC(C)(C)CO)cc(-c2ccc(C(F)(F)F)cc2)c1 [Example 51, N-(1-Hydroxy-2-methylpropan-2-yl)-3-(5-propan-2-yltetrazol-1-yl)-5-[4-(trifluoromethyl)-phenyl]-benzamide]		0.37 µM
CCC(C)(C)NC(=O)c1cc(-c2ccc(C(C)C)cc2)cc(-n2cnnn2)c1 [Example 8, N-(2-Methylbutan-2-yl)-3-(4-propan-2-ylphenyl)-5-(tetrazol-1-yl)-benzamide]		0.61 µM
CCC(C)(C)NC(=O)c1cc(-c2ccc(C3CC3)cc2)cc(-n2cnnn2)c1 [Example 9, 3-(4-Cyclopropylphenyl)-N-(2-methylbutan-2-yl)-5-(tetrazol-1-yl)-benzamide]		0.54 µM
Cc1ccc(-c2cc(C(=O)NC(C)(C)CO)cc(-n3nnnc3C3CC3)c2)cc1 [Example 32, 3-(5-Cyclopropyltetrazol-1-yl)-N-(1-hydroxy-2-methylpropan-2-yl)-5-(4-methylphenyl)-benzamide]		0.43 µM
CCC(C)(C)NC(=O)c1cc(-c2ccc(Cl)c(F)c2)cc(-n2cnnn2)c1 [Example 37, 3-(4-Chloro-3-fluorophenyl)-N-(2-methylbutan-2-yl)-5-(tetrazol-1-yl)-benzamide]		0.24 µM
CC(C)c1nnnn1-c1cc(C(=O)NC(C)(C)CO)cc(-c2ccc(Cl)cc2)c1 [Example 50, 3-(4-Chlorophenyl)-N-(1-hydroxy-2-methylpropan-2-yl)-5-(5-propan-2-yltetrazol-1-yl)-benzamide]		0.26 µM

— patent publication US10577332B2, “Tetrazole derivatives” (Hoffmann-La Roche Inc., priority 2015, dated 2020)
